Reference: US9816993B2, “Magnetically induced microspinning for super-detection and super-characterization of biomarkers and live cells” (THE REGENTS OF THE UNIVERSITY OF MICHIGAN, priority 2011, dated 2017)

Test system: HeLa cell
Experiment: Cell magnetorotation of a single HeLa cell: rotation period and morphology under toxic agents
Type: cell-based
Text: The Y axis is the normalized period, and the X axis is time in seconds. Lines show trend between connected points. For each graph, in the pictures above it, the bottom pictures show snapshots of the rotated cell at each indicated time, while the schematic pictures on top of it show the corresponding cell shapes (fixated cell not shown). Dark discs represent the cell cytoplasm and membrane, while grey spots show the vesicles formed at the surface, if any.
In this example, cancer cells loaded with nanoparticles were magnetically separated and resuspended in different media, such as culture medium (DMEM), DMEM with 5% Ethanol, or DMEM with 75% deionized water. Each medium was used to verify different aspects of this method: DMEM was used as a control, ethanol was used as a cytotoxic agent, and, to promote stress through cell swelling, we used a large proportion of DI water, reversing the ionic balance between the inside and outside of the cell. Note that a large concentration of salt in solution has the opposite effect on the cell, namely shrinking it. The cells in suspension were then pipetted onto a LIVE CELL ARRAY plate (NUNC), where the array has 100 μm wide wells, which provide adequate compartments for single cells to rotate and be analyzed. Optical scattering signals were recorded and the changes in the rotation period were measured for the different media (FIG. 2).
Cell swelling generally occurs because of the osmotic pressure created either by an ionic imbalance, as mentioned earlier, or by a lack of nutrients. Either way, the cell expands to cope with the imbalance of the chemicals it needs for maintaining its metabolism. To reach ionic disparity, we used DI water (FIG. 2B).

| SMILES | time for blebs to appear at the surface of the cell (5% ethanol in DMEM) | rise of cell rotation period (5% ethanol in DMEM (FIG. 2C)) | cell death (single HeLa cell in DMEM with 5% ethanol) | rise of cell rotation period (Cisplatin 100 ug/ml (red line on FIG. 2D)) | time for blebs to appear at the surface of the cell (Cisplatin at 100 ug/ml) | cell death (single HeLa cell in DMEM with 100 ug/ml Cisplatin) |
| --- | --- | --- | --- | --- | --- | --- |
| CCO [ethanol] | around 30 minutes | 550% | cell death is provoked | – | – | – |
| N.N.[Cl][Pt][Cl] [Cisplatin] | – | – | – | 550% | several hours | cell death is provoked |
